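Test compounds were applied to cells in 96-well plates for 48 hours at 5 doses. Abbreviation: GI50, concentration required for 50% inhibition of growth. TGI is the concentration that stops growth completely.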
Key:
Assay in all cases: NCI anticancer screen, dose series, 48 h
786-0 renal = system: 786-0 renal
A498 renal = system: A498 renal
A549 NSCLC = system: A549 NSCLC
ACHN renal = system: ACHN renal
CAKI-1 renal = system: CAKI-1 renal
COLO 205 colon = system: COLO 205 colon
EKVX NSCLC = system: EKVX NSCLC
HCC-2998 colon = system: HCC-2998 colon
HCT-116 colon = system: HCT-116 colon
HCT-15 colon = system: HCT-15 colon
HL-60(TB) leukemia = system: HL-60(TB) leukemia
HOP-62 NSCLC = system: HOP-62 NSCLC
HOP-92 NSCLC = system: HOP-92 NSCLC
HT29 colon = system: HT29 colon
IGROV1 ovarian = system: IGROV1 ovarian
K-562 leukemia = system: K-562 leukemia
KM12 colon = system: KM12 colon
KM20L2 colon = system: KM20L2 colon
LOX IMVI melanoma = system: LOX IMVI melanoma
M14 melanoma = system: M14 melanoma
MALME-3M melanoma = system: MALME-3M melanoma
MOLT-4 leukemia = system: MOLT-4 leukemia
NCI-H226 lung = system: NCI-H226 lung
NCI-H23 lung = system: NCI-H23 lung
NCI-H460 lung = system: NCI-H460 lung
NCI-H522 lung = system: NCI-H522 lung
OVCAR-3 ovarian = system: OVCAR-3 ovarian
OVCAR-4 ovarian = system: OVCAR-4 ovarian
OVCAR-5 ovarian = system: OVCAR-5 ovarian
OVCAR-8 ovarian = system: OVCAR-8 ovarian
RPMI-8226 leukemia = system: RPMI-8226 leukemia
SF-268 CNS = system: SF-268 CNS
SF-295 CNS = system: SF-295 CNS
SF-539 CNS = system: SF-539 CNS
SK-MEL-2 melanoma = system: SK-MEL-2 melanoma
SK-MEL-28 melanoma = system: SK-MEL-28 melanoma
SK-MEL-5 melanoma = system: SK-MEL-5 melanoma
SK-OV-3 ovarian = system: SK-OV-3 ovarian
SN12C renal = system: SN12C renal
SNB-19 CNS = system: SNB-19 CNS
SNB-75 CNS = system: SNB-75 CNS
SW-620 colon = system: SW-620 colon
TK-10 renal = system: TK-10 renal
U251 CNS = system: U251 CNS
UACC-257 melanoma = system: UACC-257 melanoma
UACC-62 melanoma = system: UACC-62 melanoma
UO-31 renal = system: UO-31 renal
BT-549 breast = system: BT-549 breast
CCRF-CEM leukemia = system: CCRF-CEM leukemia
DU-145 prostate = system: DU-145 prostate
HS 578T breast = system: HS 578T breast
MCF7 breast = system: MCF7 breast
MDA-MB-231 breast = system: MDA-MB-231 breast
MDA-MB-435 = system: MDA-MB-435
MDA-N = system: MDA-N
NCI/ADR-RES ovarian = system: NCI/ADR-RES ovarian
PC-3 prostate = system: PC-3 prostate
RXF 393 renal = system: RXF 393 renal
SR leukemia = system: SR leukemia
T-47D breast = system: T-47D breast

CC(=O)[O-].O=C([CH-]C(=O)c1ccccc1)c1ccccc1.O=C([CH-]C(=O)c1ccccc1)c1ccccc1.[Sm+3]
GI50 (786-0 renal): 3.2 µM
TGI (786-0 renal): 16.3 µM
GI50 (A498 renal): 13.1 µM
TGI (A498 renal): 37.2 µM
GI50 (A549 NSCLC): 6.11 µM
TGI (A549 NSCLC): 29.5 µM
GI50 (ACHN renal): 4.96 µM
TGI (ACHN renal): 25.3 µM
GI50 (CAKI-1 renal): 3.57 µM
TGI (CAKI-1 renal): 15.9 µM
GI50 (COLO 205 colon): 7.89 µM
TGI (COLO 205 colon): 22.8 µM
GI50 (EKVX NSCLC): 2.11 µM
TGI (EKVX NSCLC): 16.6 µM
GI50 (HCC-2998 colon): 3.81 µM
TGI (HCC-2998 colon): 14.6 µM
GI50 (HCT-116 colon): 5.05 µM
TGI (HCT-116 colon): 18.2 µM
GI50 (HCT-15 colon): 5.5 µM
TGI (HCT-15 colon): 22.5 µM
GI50 (HL-60(TB) leukemia): 1.66 µM
TGI (HL-60(TB) leukemia): 7.08 µM
GI50 (HOP-62 NSCLC): 1.96 µM
TGI (HOP-62 NSCLC): 9.04 µM
GI50 (HOP-92 NSCLC): 4.96 µM
TGI (HOP-92 NSCLC): 19.6 µM
GI50 (HT29 colon): 6.59 µM
TGI (HT29 colon): 19 µM
GI50 (IGROV1 ovarian): 5.92 µM
TGI (IGROV1 ovarian): 45.1 µM
GI50 (K-562 leukemia): 3.68 µM
TGI (K-562 leukemia): 27.4 µM
GI50 (KM12 colon): 1.63 µM
TGI (KM12 colon): 21.2 µM
GI50 (KM20L2 colon): 7.33 µM
TGI (KM20L2 colon): 36.5 µM
GI50 (LOX IMVI melanoma): 7.01 µM
TGI (LOX IMVI melanoma): 21.7 µM
GI50 (M14 melanoma): 4.55 µM
TGI (M14 melanoma): 17.5 µM
GI50 (MALME-3M melanoma): 4.08 µM
TGI (MALME-3M melanoma): 34 µM
GI50 (MOLT-4 leukemia): 2.41 µM
TGI (MOLT-4 leukemia): 21.2 µM
GI50 (NCI-H226 lung): 1.52 µM
TGI (NCI-H226 lung): 9.69 µM
GI50 (NCI-H23 lung): 3.1 µM
TGI (NCI-H23 lung): 15.5 µM
GI50 (NCI-H460 lung): 2.54 µM
TGI (NCI-H460 lung): 82.6 µM
GI50 (NCI-H522 lung): 1.43 µM
TGI (NCI-H522 lung): 7.49 µM
GI50 (OVCAR-3 ovarian): 2.62 µM
TGI (OVCAR-3 ovarian): 13.3 µM
GI50 (OVCAR-4 ovarian): 4.81 µM
TGI (OVCAR-4 ovarian): 62.6 µM
GI50 (OVCAR-5 ovarian): 21.4 µM
TGI (OVCAR-5 ovarian): 63.1 µM
GI50 (OVCAR-8 ovarian): 2.13 µM
TGI (OVCAR-8 ovarian): 16.3 µM
GI50 (RPMI-8226 leukemia): 5.57 µM
TGI (RPMI-8226 leukemia): 33.8 µM
GI50 (SF-268 CNS): 3.39 µM
TGI (SF-268 CNS): 24.5 µM
GI50 (SF-295 CNS): 2.66 µM
TGI (SF-295 CNS): 17.2 µM
GI50 (SF-539 CNS): 14.6 µM
TGI (SF-539 CNS): 45.2 µM
GI50 (SK-MEL-2 melanoma): 2.03 µM
TGI (SK-MEL-2 melanoma): 6.93 µM
GI50 (SK-MEL-28 melanoma): 5.87 µM
TGI (SK-MEL-28 melanoma): 37.8 µM
GI50 (SK-MEL-5 melanoma): 1.66 µM
TGI (SK-MEL-5 melanoma): 10.2 µM
GI50 (SK-OV-3 ovarian): 6.18 µM
TGI (SK-OV-3 ovarian): 37.4 µM
GI50 (SN12C renal): 6.23 µM
TGI (SN12C renal): 24.8 µM
GI50 (SNB-19 CNS): 6.44 µM
TGI (SNB-19 CNS): 65.7 µM
GI50 (SNB-75 CNS): 2.12 µM
TGI (SNB-75 CNS): 6.76 µM
GI50 (SW-620 colon): 2.71 µM
TGI (SW-620 colon): 23.5 µM
GI50 (TK-10 renal): 6.41 µM
TGI (TK-10 renal): 48.7 µM
GI50 (U251 CNS): 5.93 µM
TGI (U251 CNS): 35.3 µM
GI50 (UACC-257 melanoma): 5.66 µM
TGI (UACC-257 melanoma): 24.1 µM
GI50 (UACC-62 melanoma): 3.73 µM
TGI (UACC-62 melanoma): 19.8 µM
GI50 (UO-31 renal): 3.79 µM
TGI (UO-31 renal): 12.5 µM

Cc1c([N+](=O)[O-])oc2ccc3ccccc3c12
TGI (786-0 renal): > 100 µM
TGI (A498 renal): > 100 µM
TGI (A549 NSCLC): > 100 µM
TGI (ACHN renal): > 100 µM
TGI (BT-549 breast): > 100 µM
TGI (CAKI-1 renal): > 100 µM
TGI (CCRF-CEM leukemia): > 100 µM
TGI (COLO 205 colon): > 100 µM
TGI (DU-145 prostate): 83.7 µM
TGI (EKVX NSCLC): > 100 µM
TGI (HCC-2998 colon): > 100 µM
TGI (HCT-116 colon): 34.2 µM
TGI (HCT-15 colon): > 100 µM
TGI (HL-60(TB) leukemia): > 100 µM
TGI (HOP-62 NSCLC): > 100 µM
TGI (HOP-92 NSCLC): > 100 µM
TGI (HS 578T breast): > 100 µM
TGI (HT29 colon): > 100 µM
TGI (IGROV1 ovarian): > 100 µM
TGI (K-562 leukemia): > 100 µM
TGI (KM12 colon): > 100 µM
TGI (LOX IMVI melanoma): > 100 µM
TGI (M14 melanoma): > 100 µM
TGI (MCF7 breast): 93.7 µM
TGI (MDA-MB-231 breast): > 100 µM
TGI (MDA-MB-435): > 100 µM
TGI (MDA-N): > 100 µM
TGI (MOLT-4 leukemia): > 100 µM
TGI (NCI-H226 lung): > 100 µM
TGI (NCI-H23 lung): > 100 µM
TGI (NCI-H460 lung): > 100 µM
TGI (NCI-H522 lung): 41.9 µM
TGI (NCI/ADR-RES ovarian): > 100 µM
TGI (OVCAR-3 ovarian): > 100 µM
TGI (OVCAR-4 ovarian): > 100 µM
TGI (OVCAR-5 ovarian): > 100 µM
TGI (OVCAR-8 ovarian): > 100 µM
TGI (PC-3 prostate): > 100 µM
TGI (RPMI-8226 leukemia): > 100 µM
TGI (RXF 393 renal): > 100 µM
TGI (SF-268 CNS): > 100 µM
TGI (SF-295 CNS): > 100 µM
TGI (SF-539 CNS): > 100 µM
TGI (SK-MEL-2 melanoma): > 100 µM
TGI (SK-MEL-28 melanoma): > 100 µM
TGI (SK-MEL-5 melanoma): > 100 µM
TGI (SK-OV-3 ovarian): > 100 µM
TGI (SN12C renal): > 100 µM
TGI (SNB-19 CNS): > 100 µM
TGI (SNB-75 CNS): > 100 µM
TGI (SR leukemia): > 100 µM
TGI (SW-620 colon): > 100 µM
TGI (T-47D breast): > 100 µM
TGI (TK-10 renal): > 100 µM
TGI (U251 CNS): > 100 µM
TGI (UACC-257 melanoma): > 100 µM
TGI (UACC-62 melanoma): > 100 µM
TGI (UO-31 renal): > 100 µM

COc1ccc(C(=O)/C=C/c2cc(O)c(O)cc2F)c(OC)c1
TGI (786-0 renal): 22.9 µM
TGI (A498 renal): 26.8 µM
TGI (A549 NSCLC): > 75.4 µM
TGI (ACHN renal): > 63.3 µM
TGI (BT-549 breast): 24.4 µM
TGI (CAKI-1 renal): > 100 µM
TGI (CCRF-CEM leukemia): 15.2 µM
TGI (COLO 205 colon): 29.8 µM
TGI (DU-145 prostate): 27.3 µM
TGI (EKVX NSCLC): 49 µM
TGI (HCC-2998 colon): 7.42 µM
TGI (HCT-116 colon): 20.4 µM
TGI (HCT-15 colon): > 40.9 µM
TGI (HL-60(TB) leukemia): 5.71 µM
TGI (HOP-62 NSCLC): 31.1 µM
TGI (HOP-92 NSCLC): > 100 µM
TGI (HS 578T breast): > 65.3 µM
TGI (HT29 colon): 26 µM
TGI (IGROV1 ovarian): > 88.2 µM
TGI (K-562 leukemia): > 43.1 µM
TGI (KM12 colon): > 79.9 µM
TGI (LOX IMVI melanoma): 26.9 µM
TGI (M14 melanoma): 23.9 µM
TGI (MALME-3M melanoma): 24.6 µM
TGI (MCF7 breast): 13.9 µM
TGI (MDA-MB-231 breast): 64.3 µM
TGI (MDA-MB-435): > 100 µM
TGI (MDA-N): 53.4 µM
TGI (MOLT-4 leukemia): 45.1 µM
TGI (NCI-H226 lung): 55 µM
TGI (NCI-H23 lung): 26.6 µM
TGI (NCI-H460 lung): 17.7 µM
TGI (NCI-H522 lung): 3.19 µM
TGI (NCI/ADR-RES ovarian): > 68.7 µM
TGI (OVCAR-3 ovarian): 2.65 µM
TGI (OVCAR-4 ovarian): > 100 µM
TGI (OVCAR-5 ovarian): 33.5 µM
TGI (OVCAR-8 ovarian): > 76.6 µM
TGI (PC-3 prostate): 25.4 µM
TGI (RPMI-8226 leukemia): 36.4 µM
TGI (RXF 393 renal): 26.7 µM
TGI (SF-268 CNS): 32.3 µM
TGI (SF-295 CNS): 23.5 µM
TGI (SF-539 CNS): 31 µM
TGI (SK-MEL-2 melanoma): 18.3 µM
TGI (SK-MEL-28 melanoma): 31.1 µM
TGI (SK-MEL-5 melanoma): 20.9 µM
TGI (SK-OV-3 ovarian): 47.2 µM
TGI (SN12C renal): 18 µM
TGI (SNB-19 CNS): 24.9 µM
TGI (SNB-75 CNS): 20.7 µM
TGI (SR leukemia): 14.1 µM
TGI (SW-620 colon): > 55.3 µM
TGI (T-47D breast): > 80.3 µM
TGI (TK-10 renal): 66.3 µM
TGI (U251 CNS): 20.9 µM
TGI (UACC-257 melanoma): 22.7 µM
TGI (UACC-62 melanoma): 23.1 µM
TGI (UO-31 renal): 30.8 µM

— PubChem BioAssay (NCI)
